Assay results as given in the supplement of paper PMC10702517.
± gives the standard deviation.

How the values were obtained:
[1] = chemical recovery by SPE of plasma after PDMS sampling; higher = better extraction; details: pooled human plasma, extraction method: HLB SPE of plasma after PES
[2] = chemical recovery from spiked human plasma; higher = better extraction; details: pooled human plasma
[3] = chemical recovery into PDMS from spiked human plasma; higher = better extraction; details: pooled human plasma, extraction method: PES with PDMS
[4] = extraction method: SPE only (HLB 96-well), PES comparison experiment
[5] = extraction method: solvent precipitation (ACN + hexane)
[6] = extraction method: PES+SPE (3 d PDMS equilibration then HLB SPE)
[7] = extraction method: SPE only (HLB 96-well)
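Wherever chemical recovery by SPE of plasma after PDMS sampling is given: over 400 spiked chemicals quantified by LC-HRMS or GC-HRMS via internal standard calibration, recovery relative to spike mix added to unspiked plasma extract to correct matrix effects.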

SMILES | chemical recovery by SPE of plasma ([1]; equilibration time (d): 1) | chemical recovery by SPE of plasma ([1]; equilibration time (d): 3) | chemical recovery [2, 4] | chemical recovery into PDMS ([3]; equilibration time (d): 1) | chemical recovery into PDMS ([3]; equilibration time (d): 3) | chemical recovery into PDMS ([3]; equilibration time (d): 6) | chemical recovery [2, 5] | chemical recovery by SPE of plasma ([1]; equilibration time (d): 6) | chemical recovery [2, 6] | chemical recovery [2, 7]
CCC(=O)O[C@]1(C(=O)CCl)[C@@H](C)C[C@H]2[C@@H]3CCC4=CC(=O)C=C[C@]4(C)[C@@]3(F)[C@@H](O)C[C@@]21C [Clobetasol propionate] | 5.08 ± 8.8% | 7.02 ± 6.3% | 44.8 ± 8.7% | 28.2 ± 4.4% | 36.9 ± 2.1% | 37.2 ± 3.9% |  |  |  | 
Brc1cc(Br)c(Oc2cc(Br)c(Br)cc2Br)c(Br)c1 [BDE154] | 1.62 ± 1.4% | 1.94 ± 0.88% |  |  | 67.2 ± 9.8% | 66.7 ± 20% | 28.8 ± 2.3% |  |  | 
NC(=O)N1c2ccccc2C=Cc2ccccc21 [Carbamazepine] | 25.4 ± 2.9% | 21.1 ± 2.3% | 52.6 ± 6.1% | 22.2 ± 1.2% | 28.4 ± 2.1% | 30.7 ± 1.8% | 72.3 ± 2.5% | 13.6 ± 1.4% | 61.4 ± 6.2% | 48.5 ± 5.5%
Clc1ccc2ccccc2c1 [2-Chloronaphthalene] | 3.42 ± 3% |  | 0.564 ± 0.39% | 10.2 ± 1.7% |  |  |  |  |  | 0.106 ± 0.18%
CCN(CC)c1nc(C)cc(OP(=S)(OC)OC)n1 [Pirimiphos-methyl] | 0.602 ± 0.13% | 0.453 ± 0.41% | 42.9 ± 8.2% | 29.7 ± 4.3% | 33.5 ± 3.9% | 32.1 ± 0.42% | 68.8 ± 5.2% | 0.275 ± 0.24% |  | 36.4 ± 3.4%
c1ccc(-c2cccc(-c3ccccc3)c2)cc1 [m-Terphenyl] | 1.91 ± 3.3% | 2.9 ± 2.5% | 2.42 ± 4.8% | 90.2 ± 24% | 86.8 ± 18% | 101 ± 37% | 34.3 ± 1.4% | 2.74 ± 2.4% |  | 0.761 ± 0.18%
CC(C)NCC(O)COc1cccc2ccccc12 (stereo not drawn) [Propranolol] | 8.66 ± 0.64% | 9.06 ± 1.1% | 50 ± 7% | 0.322 ± 0.19% | 0.522 ± 0.36% | 0.438 ± 0.19% | 71.9 ± 3.2% | 7.31 ± 0.57% | 7.98 ± 1.1% | 45.4 ± 2.9%
CC(=O)[C@@]1(O)CC[C@H]2[C@@H]3C[C@H](C)C4=CC(=O)CC[C@]4(C)[C@H]3CC[C@@]21C [Medroxyprogesterone] |  |  | 47.7 ± 7% | 40.5 ± 2.4% | 46.2 ± 3.4% | 44.5 ± 6.2% |  | 1.02 ± 1.8% |  | 
NC(=O)c1ccc(N)cc1 [4-Aminobenzamide] |  | 5.92 ± 1.7% |  | 0.339 ± 0.59% | 0.844 ± 0.17% | 0.572 ± 0.1% | 98.6 ± 21% | 10 ± 3.9% | 3.92 ± 0.79% | 3.28 ± 2.1%
N#Cc1nn(-c2c(Cl)cc(C(F)(F)F)cc2Cl)c(N)c1SC(F)(F)F [Fipronil sulfide] | 21.2 ± 6.2% | 19.9 ± 0.92% | 64 ± 7% | 22.6 ± 0.34% | 25.1 ± 1.1% | 24.4 ± 0.83% | 49.8 ± 3.9% | 15.3 ± 3% |  | 30.6 ± 3.4%
Oc1ccc(Cl)cc1Cc1ccccc1 [Chlorophene] | 36.9 ± 6.1% | 29.2 ± 5.9% | 48.5 ± 7.9% | 13.4 ± 0.41% | 15.4 ± 0.93% | 15 ± 0.42% | 76.9 ± 7.2% | 28.6 ± 5.6% | 41.5 ± 3.1% | 36.9 ± 4.1%
CC(C)CC(C)(O)C#CC(C)(O)CC(C)C (stereo not drawn) [TMDD] |  |  |  | 47.1 ± 4.9% |  | 60.2 ± 18% | 77.6 ± 7% | 38.6 ± 6% |  | 47.5 ± 6%
CC(C)N(C(=O)COc1nnc(C(F)(F)F)s1)c1ccc(F)cc1 [Flufenacet] | 0.558 ± 0.061% | 0.583 ± 0.14% | 52.3 ± 7.7% | 50 ± 1.1% | 54.1 ± 4.8% | 51.2 ± 6% | 62.5 ± 3.1% | 0.269 ± 0.043% |  | 
OC(Cn1cncn1)(Cn1cncn1)c1ccc(F)cc1F [Fluconazole] | 42.2 ± 4.3% | 42.2 ± 4.8% | 47 ± 6.6% | 2.22 ± 0.25% | 4.26 ± 1.1% | 4.9 ± 1% | 77.1 ± 3.1% | 36.6 ± 3.1% | 43.8 ± 3.3% | 
c1ccc(-c2ccccc2-c2ccccc2)cc1 [o-Terphenyl] | 2.44 ± 1.2% | 2.46 ± 0.63% | 19.9 ± 5.7% | 81.9 ± 26% | 81.5 ± 8.2% | 88.8 ± 18% |  | 2.62 ± 0.75% |  | 12.9 ± 2.8%
c1ccc2sc(N3CCOCC3)nc2c1 [2(4-morpholinyl)benzothiazole] | 1.2 ± 0.1% | 1.41 ± 0.23% | 40.1 ± 5.6% | 27.1 ± 0.46% | 29.2 ± 2.2% | 30.7 ± 0.94% | 67.9 ± 3.3% | 0.805 ± 0.046% | 41.7 ± 6.4% | 39.6 ± 2.1%
CCOCCN(C(=O)CCl)C(=C(C)C)c1ccccc1 [Pethoxamid] |  | 0.187 ± 0.32% | 49.5 ± 6.9% | 41 ± 2.5% | 43.5 ± 3.3% | 43.2 ± 1.5% | 56.3 ± 2.8% |  |  | 
CC(C)(C)c1ccc(C(=O)CCCN2CCC(OC(c3ccccc3)c3ccccc3)CC2)cc1 [Ebastin] | 0.574 ± 0.23% |  | 36.2 ± 9% | 0.444 ± 0.073% | 0.712 ± 0.075% | 0.469 ± 0.24% |  |  |  | 
CCCCOCCOCCOCc1cc2c(cc1CCC)OCO2 [Piperonyl butoxide] | 0.249 ± 0.12% | 0.337 ± 0.29% | 39.5 ± 6.4% | 46.4 ± 3.2% | 48.7 ± 3.9% | 46 ± 2.6% |  | 0.24 ± 0.013% |  | 
